Series [1] is classed as physicochemical. On the procedure:
In order to investigate applicability of the compound (o) obtained in Example 7-c to a wet process, a solubility test of the compound in various solvents was conducted. In addition, a solubility test of pentacene was also conducted as reference.
Specifically, 20 mg of a sample was weighed and it was visually judged whether it dissolves in 10 g of a solvent at room temperature (0.2% by weight).

This is an account of results in patent US9087996B2, “Fluorine-containing aromatic compound and production method thereof” (Asahi Glass Company, Limited, priority 2012, dated 2015).

Regarding `FC(F)(F)c1c2cc3ccccc3cc2c(C(F)(F)F)c2cc3ccccc3cc12` [Compound (o)], in series [1], the “Solubility in Chloroform” value is recorded as “Yes”, the “Solubility in Cyclohexane” value is “Yes”, the “Solubility in Hexane” value is on record as “Yes” and the “Solubility in THF” value was “Yes”. In addition, in series [1], the “Solubility in Toluene” value was “Yes” and the “Solubility in o-Dichlorobenzene” value is recorded as “Yes”.

`COc1ccc(C#Cc2ccc3c(C(F)(F)F)c4ccccc4c(C(F)(F)F)c3c2)cc1` [Compound (a1), 2-[(4-methoxyphenyl)ethynyl]-9,10-bis(trifluoromethyl)anthracene]: the melting point (as a rule, the temperature of the solid-liquid transition) lay within 123.5 to 124.1 °C.

Turning to `c1ccc2cc3cc4cc5ccccc5cc4cc3cc2c1` [Pentacene, pentacene, reference compound], in series [1], the “Solubility in Chloroform” value is “No”, the “Solubility in Cyclohexane” value was “No”, the “Solubility in Hexane” value is given as “No” and the “Solubility in THF” value is “No”. Also, in series [1], the “Solubility in Toluene” value was “No” and the “Solubility in o-Dichlorobenzene” value was “No”.

The molecule `FC(F)(F)c1c2ccc(C#Cc3ccccc3)cc2c(C(F)(F)F)c2ccc(C#Cc3ccccc3)cc12` [Compound (b1), 2,6-bis(phenylethynyl)-9,10-bis(trifluoromethyl)anthracene] yielded a melting point of 215 to 215.5 °C.
